Measurements taken from ChEMBL document CHEMBL3885861, “Open TG-GATES”.

Species on record: Rattus norvegicus
Experiment: Open TG-GATES - Regimen: Single
Type: toxicity, organism-based, Sprague-Dawley
Design: regimen Single, gender Male, age 6 weeks
Conditions: in vivo, ip, 150 mg/kg, route intraperitoneal injection, dose level Low; for APTT / Bas / Eos / Fbg / Hb / Ht / Lym / MCH / MCHC / MCV / Mono / Neu / PT / Plat / RBC / Ret / WBC: tissue Blood; for KIDNEY_L / KIDNEY_R / KIDNEY_TOTAL: tissue Kidney; for LIVER: tissue Liver; for A/G / ALP / ALT / AST / BUN / CRE / Ca / Cl / DBIL / GLC / IP / K / LDH / Na / PL / RALB / TBIL / TC / TG / TP / gamma-GTP: tissue Plasma

SMILES: CCCCS(=N)(=O)CCC(N)C(=O)O (configuration not stated) [BUTHIONINE SULFOXIMINE]
- TERMINAL_BW (3 h): 216.6 g
- APTT (3 h): 16.5 s
- Bas (3 h): 0%
- Eos (3 h): 0.8%
- Fbg (3 h): 216.4 mg/dL
- Hb (3 h): 13 g/dL
- Ht (3 h): 40%
- Lym (3 h): 74.8%
- MCH (3 h): 21.5 pg
- MCHC (3 h): 32.6%
- MCV (3 h): 66 fL
- Mono (3 h): 6%
- Neu (3 h): 18.6%
- PT (3 h): 12.1 s
- Plat (3 h): 112.9 x10_4/uL
- RBC (3 h): 606.2 x10_4/ul
- Ret (3 h): 9.2%
- WBC (3 h): 102.3 x10_2/uL
- KIDNEY_L (3 h): 0.9 g
- KIDNEY_R (3 h): 1 g
- KIDNEY_TOTAL (3 h): 1.9 g
- LIVER (3 h): 10.3 g
- A/G (3 h): 2.3
- ALP (3 h): 957.2 IU/L
- ALT (3 h): 38.8 IU/L
- AST (3 h): 70.8 IU/L
- BUN (3 h): 13.6 mg/dL
- CRE (3 h): 0.5 mg/dL
- Ca (3 h): 10.9 mg/dL
- Cl (3 h): 104.8 meq/L
- DBIL (3 h): 0.08 mg/dL
- GLC (3 h): 193 mg/dL
- IP (3 h): 9.3 mg/dL
- K (3 h): 4.7 meq/L
- LDH (3 h): 91.8 IU/L
- Na (3 h): 139.8 meq/L
- PL (3 h): 133.8 mg/dL
- RALB (3 h): 3.8 g/dL
- TBIL (3 h): 0.3 mg/dL
- TC (3 h): 73.4 mg/dL
- TG (3 h): 58.4 mg/dL
- TP (3 h): 5.4 g/dL
- gamma-GTP (3 h): 1.2 IU/L
- TERMINAL_BW (6 h): 216 g
- APTT (6 h): 16.4 s
- Bas (6 h): 0%
- Eos (6 h): 0.6%
- Fbg (6 h): 217.8 mg/dL
- Hb (6 h): 13.3 g/dL
- Ht (6 h): 39.8%
- Lym (6 h): 70%
- MCH (6 h): 22.2 pg
- MCHC (6 h): 33.6%
- MCV (6 h): 66.2 fL
- Mono (6 h): 8.6%
- Neu (6 h): 20.8%
- PT (6 h): 11.2 s
- Plat (6 h): 109.8 x10_4/uL
- RBC (6 h): 600.6 x10_4/ul
- Ret (6 h): 9.3%
- WBC (6 h): 102.1 x10_2/uL
- KIDNEY_L (6 h): 1 g
- KIDNEY_R (6 h): 1 g
- KIDNEY_TOTAL (6 h): 2 g
- LIVER (6 h): 9.7 g
- A/G (6 h): 1.8
- ALP (6 h): 849.4 IU/L
- ALT (6 h): 32.8 IU/L
- AST (6 h): 72 IU/L
- BUN (6 h): 13 mg/dL
- CRE (6 h): 0.6 mg/dL
- Ca (6 h): 10.8 mg/dL
- Cl (6 h): 105.6 meq/L
- DBIL (6 h): 0 mg/dL
- GLC (6 h): 191 mg/dL
- IP (6 h): 9.5 mg/dL
- K (6 h): 4.6 meq/L
- LDH (6 h): 73.2 IU/L
- Na (6 h): 140.2 meq/L
- PL (6 h): 131.4 mg/dL
- RALB (6 h): 3.4 g/dL
- TBIL (6 h): 0.4 mg/dL
- TC (6 h): 71.8 mg/dL
- TG (6 h): 63.4 mg/dL
- TP (6 h): 5.2 g/dL
- gamma-GTP (6 h): 1.4 IU/L
- TERMINAL_BW (9 h): 212.7 g
- APTT (9 h): 16.6 s
- Bas (9 h): 0%
- Eos (9 h): 1.2%
- Fbg (9 h): 232.6 mg/dL
- Hb (9 h): 13 g/dL
- Ht (9 h): 38.7%
- Lym (9 h): 59.6%
- MCH (9 h): 22.1 pg
- MCHC (9 h): 33.7%
- MCV (9 h): 65.6 fL
- Mono (9 h): 4.2%
- Neu (9 h): 35.2%
- PT (9 h): 11.2 s
- Plat (9 h): 112.1 x10_4/uL
- RBC (9 h): 589.8 x10_4/ul
- Ret (9 h): 10.3%
- WBC (9 h): 124.2 x10_2/uL
- KIDNEY_L (9 h): 1 g
- KIDNEY_R (9 h): 1 g
- KIDNEY_TOTAL (9 h): 2 g
- LIVER (9 h): 8.7 g
- A/G (9 h): 1.9
- ALP (9 h): 803.6 IU/L
- ALT (9 h): 33.6 IU/L
- AST (9 h): 69 IU/L
- BUN (9 h): 10.4 mg/dL
- CRE (9 h): 0.5 mg/dL
- Ca (9 h): 10.9 mg/dL
- Cl (9 h): 105.8 meq/L
- DBIL (9 h): 0.024 mg/dL
- GLC (9 h): 196.8 mg/dL
- IP (9 h): 9.7 mg/dL
- K (9 h): 4.9 meq/L
- LDH (9 h): 94 IU/L
- Na (9 h): 139 meq/L
- PL (9 h): 143.4 mg/dL
- RALB (9 h): 3.5 g/dL
- TBIL (9 h): 0.4 mg/dL
- TC (9 h): 89.6 mg/dL
- TG (9 h): 33.8 mg/dL
- TP (9 h): 5.4 g/dL
- gamma-GTP (9 h): 1.8 IU/L
- TERMINAL_BW (24 h): 227.8 g
- APTT (24 h): 16.9 s
- Bas (24 h): 0%
- Eos (24 h): 1.4%
- Fbg (24 h): 242.2 mg/dL
- Hb (24 h): 13.1 g/dL
- Ht (24 h): 39.2%
- Lym (24 h): 77.8%
- MCH (24 h): 21.8 pg
- MCHC (24 h): 33.5%
- MCV (24 h): 65.1 fL
- Mono (24 h): 6%
- Neu (24 h): 14.6%
- PT (24 h): 11.5 s
- Plat (24 h): 125.6 x10_4/uL
- RBC (24 h): 602.2 x10_4/ul
- Ret (24 h): 9.2%
- WBC (24 h): 76.2 x10_2/uL
- KIDNEY_L (24 h): 1 g
- KIDNEY_R (24 h): 1 g
- KIDNEY_TOTAL (24 h): 1.9 g
- LIVER (24 h): 11.2 g
- A/G (24 h): 1.8
- ALP (24 h): 977.2 IU/L
- ALT (24 h): 31.4 IU/L
- AST (24 h): 61.4 IU/L
- BUN (24 h): 19.4 mg/dL
- CRE (24 h): 0.5 mg/dL
- Ca (24 h): 11.3 mg/dL
- Cl (24 h): 104 meq/L
- DBIL (24 h): 0.01 mg/dL
- GLC (24 h): 209 mg/dL
- IP (24 h): 8.4 mg/dL
- K (24 h): 4.5 meq/L
- LDH (24 h): 86 IU/L
- Na (24 h): 139.8 meq/L
- PL (24 h): 156.6 mg/dL
- RALB (24 h): 3.7 g/dL
- TBIL (24 h): 0.3 mg/dL
- TC (24 h): 88.2 mg/dL
- TG (24 h): 101 mg/dL
- TP (24 h): 5.9 g/dL
- gamma-GTP (24 h): 1 IU/L
